Assay results published in US10150793B2, “Antagonists of CB1 receptor” (INSERM (Institut National de la Santé et de la Recherche …, priority 2011, dated 2018).

Tests used:
CHO cells = test: Study of metabolism in vitro in CHO cells, steroids in culture medium by GC/MS
Outline: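 CHO-K1 cells were seeded at 25×10^4 cells/well in antibiotic-free DMEM-Glutamax with 10% FBS to assess metabolism of pregnenolone derivatives. Pregnenolone, allopregnanolone, epiallopregnanolone, testosterone and 5α-dihydrotestosterone in culture medium were extracted, purified and quantified by GC/MS.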

GABA-A receptors = test: GABA-A receptors-mediated mIPSC in nucleus accumbens principal neurons; type: cell-based, mouse
Experimental: GABA-A receptors-mediated currents: mIPSC were recorded in the presence of the AMPAR and NMDAR antagonists (DNQX 20 μM and AP-5 50 μM, respectably). mEPSC-mIPSC analysis: Typically, after breaking in, cells were left to equilibrate for 20 minutes and the subsequent 10 minutes recording of mEPSC-mIPSC was used to analysis. mEPSC-mIPSC were detected using a template generated from averaging several typical events (Clampfit 10, Molecular Devices). The template was slid along the data trace one point at a time. At each position, the template was optimally scaled and offset to fit the data. A lower-amplitude threshold of 7 pA and 10 pA were applied for mEPSC and mIPSC, respectably, equivalent to 2.5SD of baseline noise. For each cell, the kinetics of mEPSC-mIPSC was measured from the average event using Clampfit 10. To estimate decay times, a two exponentials curve was fitted between 5 and 95% of the decay phase of the current given by the following equation: y(t)=A1·e^(−t/τ1)+A2·e^(−t/τ2), where A is the amplitude, t is the time and τ is the decay time constant. The weighted tau was then calculated.
In order to evaluate the effect of pregnenolone on the function of post-synaptic GABA we recorded mIPSC and compared its amplitude and decay time between groups. We observed that mIPSC amplitude and decay time were similar between controls (amplitude: 17.9±0.8 pA; decay time: 11.1±0.3 ms) and slices pre-treated with pregnenolone (100 nM and 1 μM, respectively; amplitude: 17.3±0.4 pA, 15.9±0.4 pA; decay time: 10.2±0.4 ms, 10.8±0.5 ms).

[1] = Brain steroid levels after pregnenolone injections; type: in vivo, C57B1/6 mice; details: pregnenolone injections between 2 and 8 mg/kg
Experimental: Data are expressed as mean±SEM (n=7-8 per group). *=P<0.05, ***=P<0.001 compared to vehicle-treated animals (PREG 0 mg/kg).
In this example the inventors studied the effects of the doses of pregnenolone (between 2 and 8 mg/kg) that were able to inhibit the effects of CB1 activation in mice.

human CB1 receptor = biological target: T1, human CB1 receptor (Homo sapiens, UniProt P21554); test: Radioligand binding of the CB1 agonist [3H]CP55,940 in CHO cells; details: pregnenolone 10^-12 to 10^-4 M
T1 construct: host or cells: CHO cells
Experimental: The binding assay for orthosteric binding of pregnenolone has been evaluated using Chinese hamster ovary (CHO) cells expressing the human CB1 receptor.
The CB1 binding of pregnenolone has been evaluated by the affinity of pregnenolone for the agonist site of the human CB1 cannabinoid receptor expressed in CHO cells, determined in a radioligand binding assay of the CB1 agonist [3H] CP 55940. The experiments were performed by CEREP France, using the standard procedures of this provider.

[2] = culture medium of treated CHO cells, 0 = concentrations below the detection limit
[3] = culture medium, pregnenolone 1 μM, 48 hours

T1 sequence (P21554 whole entry): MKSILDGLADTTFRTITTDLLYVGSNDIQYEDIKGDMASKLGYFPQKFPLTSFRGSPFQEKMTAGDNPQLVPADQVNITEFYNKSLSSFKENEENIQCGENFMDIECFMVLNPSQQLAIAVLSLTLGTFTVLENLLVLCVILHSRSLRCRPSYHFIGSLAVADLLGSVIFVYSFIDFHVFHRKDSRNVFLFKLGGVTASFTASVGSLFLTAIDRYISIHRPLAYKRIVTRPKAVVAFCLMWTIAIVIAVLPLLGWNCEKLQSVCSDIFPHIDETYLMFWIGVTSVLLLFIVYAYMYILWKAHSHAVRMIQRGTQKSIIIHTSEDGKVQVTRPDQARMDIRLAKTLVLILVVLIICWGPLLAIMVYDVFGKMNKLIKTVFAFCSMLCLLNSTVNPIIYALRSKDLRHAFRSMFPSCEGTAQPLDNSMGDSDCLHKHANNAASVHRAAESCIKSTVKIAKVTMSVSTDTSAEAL

CC(=O)[C@H]1CC[C@H]2[C@@H]3CC=C4C[C@@H](O)CC[C@]4(C)[C@H]3CC[C@]12C [Pregnenolone, 5-Pregnen-3β-ol-20-one]
DHEA (CHO cells; [2]): 0.00 pg/mL
TESTO (CHO cells; [2]): 0.00 pg/mL
ALLO steroid levels (CHO cells; [3]): 3529.99 pg/mL
EPIALLO steroid levels (CHO cells; [3]): 16963.84 pg/mL
PREG steroid levels (CHO cells; [3]): 11440.66 pg/mL
THDOC steroid levels (CHO cells; [3]): 77.47 pg/mL
mIPSC amplitude (GABA-A receptors; slices pre-treated with 100 nM): 17.3±0.4 pA
mIPSC decay time (GABA-A receptors; slices pre-treated with 100 nM): 10.2 ± 0.4 ms
mIPSC amplitude (GABA-A receptors; slices pre-treated with 1 μM): 15.9±0.4 pA
mIPSC decay time (GABA-A receptors; slices pre-treated with 1 μM): 10.8 ± 0.5 ms
brain concentrations of downstream metabolites (epiallopregnanolone, allopregnanolone) [1]: did not modify the concentrations of downstream metabolites
brain levels of pregnenolone [1]: increased brain levels of pregnenolone
orthosteric binding of the CB1 agonist [3H]CP55,940 (human CB1 receptor): did not modify the specific binding
orthosteric binding of the CB1 agonist [3H]CP55,940 (human CB1 receptor; listed as pregnenolone): did not displace the orthosteric binding
